Measured values reported in PubChem BioAssay AID248 (DTP/NCI, 2004).
“And” between values parts separate entries of the source, which are not always exact repeats. Identical values can stand only once. Toxic doses and inconclusive results are not listed.

Tested on: L1210 leukemia ip in BDF1 mice, survival T/C
Experiment: NCI In Vivo Anticancer Drug Screen. Data for tumor model L1210 Leukemia (intraperitoneal) in B6D2F1 (BDF1) mice
Conditions: higher = longer survival
Outline: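 Transplantable tumor model; survival measured in treated vs vehicle control mice. Value = treated/control.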

With `CCCCCCCCCCCCCCCC(=O)OCC1OC(n2ccc(N)nc2=O)C(O)C1O` (configuration not stated) the T/C (endpoint: mean survival time, dose: 5.0 mg/kg/injection, schedule: Q01DX005 (ip), vehicle: other) was 150 % of control, the T/C (endpoint: mean survival time, dose: 6.0 mg/kg/injection, schedule: Q01DX009 (ip), vehicle: saline with Tween-80) was 200 % of control and the T/C (endpoint: mean survival time, dose: 8.8 mg/kg/injection, schedule: Q01DX009 (ip), vehicle: saline with Tween-80) was 210 % of control. For the same compound, the T/C (endpoint: mean survival time, dose: 10.0 mg/kg/injection, schedule: Q01DX005 (ip), vehicle: other) was 182 % of control and 183 % of control and 198 % of control, the T/C (endpoint: mean survival time, dose: 10.0 mg/kg/injection, schedule: Q06HX008 (ip), vehicle: other) was 236 % of control and the T/C (endpoint: mean survival time, dose: 12.0 mg/kg/injection, schedule: Q01DX009 (ip), vehicle: saline with Tween-80) was 242 % of control. The T/C (endpoint: mean survival time, dose: 12.5 mg/kg/injection, schedule: Q01DX001 (ip), vehicle: saline) was 153 % of control, the T/C (endpoint: mean survival time, dose: 13.0 mg/kg/injection, schedule: Q01DX009 (ip), vehicle: saline with Tween-80) was 244 % of control (2×) and 260 % of control and the T/C (endpoint: mean survival time, dose: 15.0 mg/kg/injection, schedule: Q01DX005 (ip), vehicle: other) was 210 % of control and 231 % of control and 237 % of control. The T/C (endpoint: mean survival time, dose: 15.0 mg/kg/injection, schedule: Q01DX008 (ip), vehicle: other) was 226 % of control, the T/C (endpoint: mean survival time, dose: 15.0 mg/kg/injection, schedule: Q12HX008 (ip), vehicle: other) was 292 % of control and the T/C (endpoint: mean survival time, dose: 16.0 mg/kg/injection, schedule: Q06HX008 (ip), vehicle: other) was 267 % of control. The T/C (endpoint: mean survival time, dose: 20.0 mg/kg/injection, schedule: Q01DX005 (ip), vehicle: other) was 220 % of control and 224 % of control and 245 % of control, the T/C (endpoint: mean survival time, dose: 20.0 mg/kg/injection, schedule: Q01DX008 (ip), vehicle: other) was 264 % of control and the T/C (endpoint: mean survival time, dose: 24.0 mg/kg/injection, schedule: Q01DX009 (oral), vehicle: saline with Tween-80) was 119 % of control. For the same compound, the T/C (endpoint: mean survival time, dose: 25.0 mg/kg/injection, schedule: Q01DX001 (ip), vehicle: other) was 153 % of control and 154 % of control and 174 % of control, the T/C (endpoint: mean survival time, dose: 25.0 mg/kg/injection, schedule: Q01DX001 (ip), vehicle: saline with Tween-80) was 196 % of control and the T/C (endpoint: mean survival time, dose: 25.0 mg/kg/injection, schedule: Q01DX001 (ip), vehicle: saline) was 165 % of control. For the same compound, the T/C (endpoint: mean survival time, dose: 25.0 mg/kg/injection, schedule: Q01DX005 (ip), vehicle: other) was 243 % of control and 258 % of control and 273 % of control, the T/C (endpoint: mean survival time, dose: 25.0 mg/kg/injection, schedule: Q01DX008 (ip), vehicle: other) was 267 % of control and the T/C (endpoint: mean survival time, dose: 25.0 mg/kg/injection, schedule: Q02DX008 (ip), vehicle: other) was 270 % of control. For the same compound, the T/C (endpoint: mean survival time, dose: 25.0 mg/kg/injection, schedule: Q04DX008 (ip), vehicle: other) was 245 % of control and 252 % of control, the T/C (endpoint: mean survival time, dose: 25.0 mg/kg/injection, schedule: Q06DX008 (ip), vehicle: other) was 165 % of control and 187 % of control and the T/C (endpoint: mean survival time, dose: 25.0 mg/kg/injection, schedule: Q08DX008 (ip), vehicle: other) was 178 % of control. For the same compound, the T/C (endpoint: mean survival time, dose: 27.0 mg/kg/injection, schedule: Q02DX005 (ip), vehicle: saline with Tween-80) was 255 % of control, the T/C (endpoint: mean survival time, dose: 30.0 mg/kg/injection, schedule: Q01DX009 (ip), vehicle: saline with Tween-80) was 270 % of control and the T/C (endpoint: mean survival time, dose: 30.0 mg/kg/injection, schedule: Q03HX008 (ip), vehicle: other) was 192 % of control. The T/C (endpoint: mean survival time, dose: 32.0 mg/kg/injection, schedule: Q04DX003 (ip), vehicle: saline with Tween-80) was 198 % of control, the T/C (endpoint: mean survival time, dose: 35.0 mg/kg/injection, schedule: Q01DX005 (ip), vehicle: other) was 254 % of control and 255 % of control and the T/C (endpoint: mean survival time, dose: 36.0 mg/kg/injection, schedule: Q01DX009 (oral), vehicle: saline with Tween-80) was 113 % of control. The T/C (endpoint: mean survival time, dose: 40.0 mg/kg/injection, schedule: Q03HX008 (ip), vehicle: other) was 151 % of control and 167 % of control, the T/C (endpoint: mean survival time, dose: 49.0 mg/kg/injection, schedule: Q04DX003 (ip), vehicle: saline with Tween-80) was 271 % of control and the T/C (endpoint: mean survival time, dose: 50.0 mg/kg/injection, schedule: Q01DX001 (ip), vehicle: other) was 173 % of control and 187 % of control and 211 % of control. For the same compound, the T/C (endpoint: mean survival time, dose: 50.0 mg/kg/injection, schedule: Q01DX001 (ip), vehicle: saline with Tween-80) was 165 % of control, the T/C (endpoint: mean survival time, dose: 50.0 mg/kg/injection, schedule: Q01DX001 (ip), vehicle: saline) was 186 % of control and 207 % of control and the T/C (endpoint: mean survival time, dose: 50.0 mg/kg/injection, schedule: Q01DX009 (ip), vehicle: saline) was 115 % of control. For the same compound, the T/C (endpoint: mean survival time, dose: 50.0 mg/kg/injection, schedule: Q04DX008 (ip), vehicle: other) was 216 % of control, the T/C (endpoint: mean survival time, dose: 50.0 mg/kg/injection, schedule: Q06DX008 (ip), vehicle: other) was 245 % of control and 283 % of control and the T/C (endpoint: mean survival time, dose: 50.0 mg/kg/injection, schedule: Q08DX008 (ip), vehicle: other) was 283 % of control and 293 % of control. For the same compound, the T/C (endpoint: mean survival time, dose: 60.0 mg/kg/injection, schedule: Q02DX005 (ip), vehicle: saline with Tween-80) was 182 % of control, the T/C (endpoint: mean survival time, dose: 64.0 mg/kg/injection, schedule: Q04DX003 (oral), vehicle: saline with Tween-80) was 101 % of control and the T/C (endpoint: mean survival time, dose: 67.0 mg/kg/injection, schedule: Q01DX001 (ip), vehicle: saline with Tween-80) was 162 % of control and 220 % of control. The T/C (endpoint: mean survival time, dose: 70.0 mg/kg/injection, schedule: Q01DX001 (ip), vehicle: saline with Tween-80) was 239 % of control, the T/C (endpoint: mean survival time, dose: 75.0 mg/kg/injection, schedule: Q02DX004 (ip), vehicle: other) was 244 % of control and the T/C (endpoint: mean survival time, dose: 90.0 mg/kg/injection, schedule: Q02DX004 (ip), vehicle: other) was 283 % of control. For the same compound, the T/C (endpoint: mean survival time, dose: 98.0 mg/kg/injection, schedule: Q04DX003 (oral), vehicle: saline with Tween-80) was 106 % of control, the T/C (endpoint: mean survival time, dose: 100.0 mg/kg/injection, schedule: Q01DX001 (ip), vehicle: other) was 220 % of control and 253 % of control and 281 % of control and the T/C (endpoint: mean survival time, dose: 100.0 mg/kg/injection, schedule: Q01DX001 (ip), vehicle: saline) was 276 % of control and 293 % of control. For the same compound, the T/C (endpoint: mean survival time, dose: 100.0 mg/kg/injection, schedule: Q01DX009 (ip), vehicle: saline) was 96 % of control, the T/C (endpoint: mean survival time, dose: 100.0 mg/kg/injection, schedule: Q02DX008 (ip), vehicle: other) was 194 % of control and the T/C (endpoint: mean survival time, dose: 100.0 mg/kg/injection, schedule: Q04DX008 (ip), vehicle: other) was 286 % of control. For the same compound, the T/C (endpoint: mean survival time, dose: 120.0 mg/kg/injection, schedule: Q03DX004 (ip), vehicle: other) was 235 % of control, the T/C (endpoint: mean survival time, dose: 140.0 mg/kg/injection, schedule: Q01DX001 (oral), vehicle: saline with Tween-80) was 98 % of control and the T/C (endpoint: mean survival time, dose: 146.0 mg/kg/injection, schedule: Q04DX003 (oral), vehicle: saline with Tween-80) was 106 % of control. The T/C (endpoint: mean survival time, dose: 150.0 mg/kg/injection, schedule: Q04DX008 (ip), vehicle: other) was 233 % of control and 235 % of control, the T/C (endpoint: mean survival time, dose: 150.0 mg/kg/injection, schedule: Q08DX008 (ip), vehicle: other) was 291 % of control and the T/C (endpoint: mean survival time, dose: 200.0 mg/kg/injection, schedule: Q01DX001 (ip), vehicle: saline) was 283 % of control. For the same compound, the T/C (endpoint: mean survival time, dose: 214.0 mg/kg/injection, schedule: Q01DX001 (oral), vehicle: saline with Tween-80) was 97 % of control, the T/C (endpoint: mean survival time, dose: 220.0 mg/kg/injection, schedule: Q04DX003 (oral), vehicle: saline with Tween-80) was 104 % of control and the T/C (endpoint: mean survival time, dose: 225.0 mg/kg/injection, schedule: Q01DX001 (ip), vehicle: saline with Tween-80) was 249 % of control. For the same compound, the T/C (endpoint: mean survival time, dose: 250.0 mg/kg/injection, schedule: Q01DX001 (ip), vehicle: other) was 175 % of control and 210 % of control and 234 % of control, the T/C (endpoint: mean survival time, dose: 320.0 mg/kg/injection, schedule: Q01DX001 (oral), vehicle: saline with Tween-80) was 108 % of control and the T/C (endpoint: mean survival time, dose: 337.0 mg/kg/injection, schedule: Q01DX001 (ip), vehicle: saline with Tween-80) was 172 % of control. For the same compound, the T/C (endpoint: mean survival time, dose: 400.0 mg/kg/injection, schedule: Q01DX001 (ip), vehicle: saline) was 156 % of control, the T/C (endpoint: mean survival time, dose: 480.0 mg/kg/injection, schedule: Q01DX001 (oral), vehicle: saline with Tween-80) was 101 % of control and the T/C (endpoint: median survival time, dose: 75.0 mg/kg/injection, schedule: Q01DX001 (ip), vehicle: saline) was 288 % of control. The T/C (endpoint: median survival time, dose: 150.0 mg/kg/injection, schedule: Q01DX001 (ip), vehicle: saline) was 288 % of control, the T/C (endpoint: median survival time, dose: 300.0 mg/kg/injection, schedule: Q01DX001 (ip), vehicle: none) was 98 % of control and the T/C (endpoint: median survival time, dose: 300.0 mg/kg/injection, schedule: Q01DX001 (ip), vehicle: saline) was 94 % of control.
`O=C1OC(c2ccc([N+](=O)[O-])cc2)=N/C1=C\c1cccc([N+](=O)[O-])c1` was tested, and the T/C (endpoint: mean survival time, dose: 100.0 mg/kg/injection, schedule: Q01DX009 (ip), vehicle: other) was 96 % of control, the T/C (endpoint: mean survival time, dose: 200.0 mg/kg/injection, schedule: Q01DX009 (ip), vehicle: other) was 100 % of control and the T/C (endpoint: mean survival time, dose: 400.0 mg/kg/injection, schedule: Q01DX009 (ip), vehicle: other) was 106 % of control.
